pEC50, pIC50: −log10 of the molar value. Where two headings read alike, the source gives them in different places.
Tests used:
[1] = tested on: human prostate adenocarcinoma cell line PC-3; assay: MTT assay, quinones, PC-3; type: cell-based; conditions: Table 3, treatment time not given in cell, read-out: ID50 PC-3
Method: (§1) Cell Culture: The human lung adenocarcinoma cell line, A549, and human prostatic cancer cell line, DUPRO, were a gift from Dr. M. Eileen Dolan, University of Chicago, Department of Medicine. A549 was grown in Ham's F-12K medium (Fisher Scientific, Itasca, Ill.) supplemented with 10% fetal bovine serum and 2 mM L-glutamine. DUPRO was grown in RPMI-1640 supplemented with 10% fetal bovine serum. The human colon carcinoma cell line, HT29, and the human breast carcinoma cell line, MCF7, were obtained from the American Type Culture Collection, Rockville, Md. HT29 cells were grown in McCoy's 5A medium (Gibco, BRL, Gaithersburg, Md.) supplemented with 10% fetal bovine serum. MCF7 cells were grown in Richter's Improved Modified Eagle's medium supplemented with 10% fetal bovine serum and 2.2 g/L sodium bicarbonate. The human prostate adenocarcinoma cell lines, LNCAP, PC-3 and DU145, were gifts from Dr. George Wilding, University of Wisconsin Comprehensive Cancer Center and the Department of Medicine, and were grown in Dulbecco's Modified Eagle's medium supplemented with a 5% fetal bovine serum. The malignant glioma cell line, U251MG NCI was obtained from the brain tumor tissue bank at the University of California, San Francisco Department of Neurosurgery, and was grown in Dulbecco's Modified Eagle's medium supplemented wth 10% fetal bovine serum. DUPRO, A549 and MCF7 cells were grown in 100 units/mL penicillin and 100 μg/mL streptomycin. HT29 and U251MG NCI cells were grown in 50 μg/mL gentamycin. LNCAP, PC-3 and DU145 cells were maintained in 1% antibiotic antimycotic solution (Sigma, St. Louis, Mo.). All cell cultures were maintained at 37° C. in 5% CO2/95% humidified air.
(§2) MTT assay. Exponentially growing monolayer cells were plated in 96 well plates at a density of 500 cells/well and allowed to grow for 24 h. Serially diluted drug solutions were added such that the final drug concentrations in the treatment media were between 0 and 35 μM. Cells were incubated with drug at either 4 hr or 72 hr. After 4 hr and 72 hr treatment, drugs were removed, fresh media (without) drug (100 uL) was added and cells were incubated for 6 days. After six days, 25 μL of a Dulbecco's phosphate-buffered saline solution containing 5 mg/mL of MTT (Thiazolyl blue) (Sigma) was added to each well and incubated for 4 h at 37° C. Then 100 μL of lysis buffer (20% sodium dodecyl sulfate, 50% N,N-dimethylformamide and 0.8% acetic acid, pH 4.7) was added to each well and incubated for an additional 22 h. A microplate reader (E max, Molecular Devices, Sunnyvale, Calif.) set at 570 nm was used to determine the optical density. Results were plotted as a ratio of the optical density in drug treated wells to the optical density in wells treated with vehicle alone. Plotting and estimation of ID50 values were accomplished with manufacturer supplied software. The data is presented below in Tables 3, 4, 5 and 6.

[2] = tested on: human breast carcinoma cell line, MCF7; assay: MTT assay, quinones, MCF7; type: cell-based; conditions: Table 4, treatment time not given in cell, read-out: ID50 Breast MCF7
Method: as §1, §2

[3] = tested on: malignant glioma cell line, U251MG NCI; assay: MTT assay, quinones, U251MG NCI; type: cell-based, human; conditions: read-out: ID50 Brain U251-MG
Method: as §1, with “The malignant glioma cell line, U251MG NCI was obtained from the brain tumor tissue bank at the University of California, San Francisco Department of Neurosurgery, and was grown in Dulbecco's Modified Eagle's medium supplemented wth 10% fetal bovine serum. DUPRO, A549 and MCF7 cells were grown in 100 units/mL penicillin and 100 μg/mL streptomycin. HT29 and U251MG NCI cells were grown in 50 μg/mL gentamycin. LNCAP, PC-3 and DU145 cells were maintained in 1% antibiotic antimycotic solution (Sigma, St. Louis, Mo.). All cell cultures were maintained at 37° C. in 5% CO2/95% humidified air.” left out
MTT assay. […] A microplate reader (E max, Molecular Devices, Sunnyvale, Calif.) set at 570 nm was used to determine the optical density. […]

[4] = tested on: human prostatic cancer cell line, DUPRO; assay: MTT assay, quinones, DUPRO; type: cell-based; conditions: Table 3, treatment time not given in cell, read-out: ID50 DUPRO
Method: as §1
(§3) MTT assay. Exponentially growing monolayer cells were plated in 96 well plates at a density of 500 cells/well and allowed to grow for 24 h. Serially diluted drug solutions were added such that the final drug concentrations in the treatment media were between 0 and 35 μM. […] A microplate reader (E max, Molecular Devices, Sunnyvale, Calif.) set at 570 nm was used to determine the optical density. […]

[5] = tested on: human prostate adenocarcinoma cell line DU145; assay: MTT assay, quinones, DU145; type: cell-based; conditions: DU-145, Table 3, treatment time not given in cell, read-out: ID50 DU145
Method: as §1, §3

[6] = tested on: human prostate cancer cells DU145; assay: MTT assay, polyamine analogs, DU145; type: cell-based; conditions: for pIC50: DU-145, 144 h, read-out: concentration needed for 50% growth inhibition (ID50) DU-145, Table 2, MTT six days after drug treatment; for pEC50: figure legends, read-out: ED50 (the source's name)
Method: (§4) Human breast cancer cell line MCF7 was grown in Richter's Improved Modified Eagle's Medium supplemented with 10% fetal bovine serum (FBS) and 2.2 g/L sodium bicarbonate. Human brain tumor cell line U251 MG-NCI was grown in Dulbecco's Modified Eagle's Medium supplemented with 10% FBS. Human lung cancer cell line A549 was grown in Ham's F-12K medium (Cellgro, Mediatech, Inc., VA), supplemented with 10% FBS and 2 mM L-glutamine. Human colon cancer cell line HT29 was cultured in McCoy's 5A medium (Gibco, BRL, Gaithersburg, Md.) supplemented with 10% FBS. Human prostate cancer cell lines PC-3, LNCAP and DuPro were grown in RPMI 1640 Medium (Cellgro, Mediatech, Inc., VA) supplemented with 10% FBS. Another human prostate cancer cell line DU145 was grown in Dulbecco's Modified Eagle's Medium (Gibco, BRL, Gaithersburg, Md.) supplemented with 5% FBS. The A549, MCF7, PC3, LNCAP and DuPro cell lines were cultured in 100 units/mL penicillin and 100 μg/mL streptomycin. HT29 and U251MG cell lines were grown in 50 μg/mL gentamycin (Gibco, BRL, Gaithersburg, Md.). DU145 cell line was maintained in 1% antibitic-antimycotic solution (Sigma, St. Louis, Mo.). The cell cultures were maintained at 37° C. in 5% CO2/95% humidified air. DuPro cells were obtained from M. Eileen Dolan, University of Chicago. All other cells are available from the American Type Culture Collection, Rockville, Md.
(§5) A conventional MTT assay was used to evaluate percent cell survival. Exponentially growing monolayer cells were plated in 96-well plates at a density of 500 cells per well and allowed to grow for 24 hours. Serial dilutions of the drugs were added to the wells. Six days after drug treatment, 25 μl of MTT solution (5 mg/ml) was added to each well and incubated for 4 hours at 37° C. Then 100 μl of lysis buffer (20% sodium dodecyl sulfate, 50% DMF, and 0.8% acetic acid, pH 4.7) was added to each well and incubated for an additional 22 hours. A microplate reader (“EMAX”-brand, Molecular Devices, Sunnyvale, Calif.) set at 570 nm was used to determine the optical density of the cultures. Results are expressed as a ratio of the optical density in drug-treated wells to the optical density in wells treated with vehicle only.

[7] = tested on: human prostate cancer cells DUPRO; assay: MTT assay, polyamine analogs, DUPRO; type: cell-based; conditions: for pIC50: 144 h, read-out: concentration needed for 50% growth inhibition (ID50) DUPRO, Table 2, MTT six days after drug treatment; for pEC50: survival of cultured DUPRO cells, figure legends, read-out: ED50 (the source's name)
Method: as §4, §5

[8] = tested on: human brain tumor cells U251 MG NCI; assay: MTT assay, polyamine analogs, U251 MG NCI; type: cell-based; conditions: for pIC50: U-251, 144 h, read-out: concentration needed for 50% growth inhibition (ID50) U251MG, Table 2, MTT six days after drug treatment; for pEC50: U-251, survival of cultured U251 MG NCI cells, figure legends, read-out: ED50 (the source's name)
Method: as §4, §5

[9] = tested on: human prostate cancer cells PC3; assay: MTT assay, polyamine analogs, PC3; type: cell-based; conditions: PC-3, survival of cultured PC3 cells, figure legends, read-out: ED50 (the source's name)
Method: as §4, §5

[10] = tested on: human breast cancer cells MCF7; assay: MTT assay, polyamine analogs, MCF7; type: cell-based; conditions: for pIC50: MCF7, 144 h, read-out: concentration needed for 50% growth inhibition (ID50) MCF7, Table 2, MTT six days after drug treatment; for pEC50: MCF7, survival of cultured MCF7 cells, figure legends, read-out: ED50 (the source's name)
Method: (§6) As shown in Table 2 and FIGS. 1-32, several novel conformationally restricted polyamine analogs were tested for anti-proliferative properties against cancer cells.
as §4, §5

[11] = tested on: human lung cancer cells A549; assay: MTT assay, polyamine analogs, A549; type: cell-based; conditions: Homo sapiens; for pIC50: A549, 144 h, read-out: concentration needed for 50% growth inhibition (ID50) A549, Table 2, MTT six days after drug treatment; for pEC50: A549, survival of cultured A549 cells, figure legends, read-out: ED50 (the source's name)
Method: as §6, §4, §5

[12] = tested on: human colon cancer cells HT29; assay: MTT assay, polyamine analogs, HT29; type: cell-based; conditions: for pIC50: HT-29, 144 h, read-out: concentration needed for 50% growth inhibition (ID50) HT-29, Table 2, MTT six days after drug treatment; for pEC50: HT-29, survival of cultured HT29 cells, figure legends, read-out: ED50 (the source's name)
Method: as §6, §4, §5

[13] = tested on: human prostate cancer cells LNCAP; assay: MTT assay, polyamine analogs, LNCAP; type: cell-based; conditions: survival of cultured LNCAP cells, figure legends, read-out: ED50 (the source's name)
Method: as §4
A conventional MTT assay was used to evaluate percent cell survival. Exponentially growing monolayer cells were plated in 96-well plates at a density of 500 cells per well and allowed to grow for 24 hours. Serial dilutions of the drugs were added to the wells. Six days after drug treatment, 25 μl of MTT solution (5 mg/ml) was added to each well and incubated for 4 hours at 37° C. […] A microplate reader (“EMAX”-brand, Molecular Devices, Sunnyvale, Calif.) set at 570 nm was used to determine the optical density of the cultures. Results are expressed as a ratio of the optical density in drug-treated wells to the optical density in wells treated with vehicle only.

[14] = in one study; cited from earlier work
[15] = tested on: prostate xenograft tumors; conditions: nude mice; cited from earlier work
[16] = Homo sapiens, DU-145, survival of cultured DU145 cells

## CCCCN/C=C1\C=C(O)C(=O)c2ccccc21 [SL-11089]
[1]
  pIC50: 4.96
[2]
  pIC50: < 4.51

## CC1(C)CCC2=C(O1)c1ccccc1C(=O)C2=O [SL-11058]
[3]; Table 6, non-quinone compounds
  pIC50: < 4.51

## O=C1C=C(OCCCCCNC2CCCCC2)c2ccccc2C1=O [SL-11060]
[3]; Homo sapiens, U-251, Table 4, treatment time not given in cell
  pIC50: < 4.51
[2]
  pIC50: 4.76

## O=C1C=C(OCCCCCCCc2ccc(Nc3c4ccccc4nc4ccccc34)cc2)c2ccccc2C1=O [SL-11064, Quinone-anilinoacridine]
[1]
  pIC50: 6.15
[4]
  pIC50: 5.66
[5]
  pIC50: 6.89

## O=C1C=C(OCCCCCCO)c2ccccc2C1=O [SL-11051]
[1]
  pIC50: 4.77
[4]
  pIC50: 4.71
[5]
  pIC50: 4.95

## CCCCN(CC1=CC(=O)C(=O)c2ccccc21)C(=O)C(F)(F)F [SL-11088]
[1]
  pIC50: < 4.51
[2]
  pIC50: < 4.51

## CCNCCCCNC/C=C\CNCCCCNCC [SL-11102]
[6]; Homo sapiens
  pIC50: 7.57
[6]; [16]
  pEC50: 7.52
[7]; Homo sapiens, DuPro
  pIC50: 6.82
  pEC50: 6.82
[8]
  pIC50: 6.82
  pEC50: 6.82
[9]
  pEC50: < 4.51
[10]
  pIC50: < 4.51
  pEC50: < 4.51
[11]
  pIC50: 4.91
  pEC50: 6.82
[12]
  pIC50: 6.14
  pEC50: 6.14

## CCCCN(CC1=CC(=O)C(=O)c2ccccc21)C(=O)CCC(=O)N1CCOCC1 [SL-11096]
[1]
  pIC50: 5.44
[2]
  pIC50: 5.42

## CCNCCCCNCCCCNCCCCNCCCCNC/C=C\CNCCCCNCCCCNCCCCNCCCCNCC [SL-11150]
[6]; survival of cultured DU145 cells
  pEC50: 6.96
[7]
  pEC50: 6.32
[13]
  pEC50: 6.64

## CCNC/C=C\CNC/C=C\CNC/C=C\CNCC [SL-11108]
[6]; Homo sapiens
  pIC50: 6.89
[6]; [16]
  pEC50: 6.89
[7]; Homo sapiens, DuPro
  pIC50: 6.01
  pEC50: 6.01
[13]; Homo sapiens, LNCaP
  pEC50: 5.11
[8]
  pIC50: 5.70
  pEC50: 5.70
[9]
  pEC50: 5.66
[10]
  pIC50: < 4.51
  pEC50: < 4.51
[11]
  pIC50: < 4.51
  pEC50: < 4.51
[12]
  pIC50: 5.70
  pEC50: 5.70

## CC(/C=N/NC(=N)N)=N\NC(=N)N [MGBG, methylglyoxal-bis-guanylhydrazone]
[14]
  side effects, drug deaths: drug deaths occurred in over half of treated animals

## CCNCCCCNCC1CC1CNCCCCNCC (stereo not drawn) [SL-11093]
[6]; [16]
  pEC50: 7.80
[13]; Homo sapiens, LNCaP
  pEC50: 6.68
[8]
  pEC50: 7.15
[9]
  pEC50: 5.80
[11]
  pEC50: 6.59
[12]
  pEC50: 6.40

## CCNCCCCNCCCCNCCCCNCCCCNCC [BE-4444, 1,19-bis(ethylamino)-5,10,15-triazanonadecane]
[15]
  inhibition of prostate xenograft tumors: particularly effective in inhibiting prostate xenograft tumors in nude mice

## CCCCN(CC1=CC(=O)C(=O)c2ccccc21)C(C)=O [SL-11087]
[1]
  pIC50: 5.62
[2]
  pIC50: 5.40

## CCNCCCNCCCCCCCNCCCNCC [BE-373]
[15]
  inhibition of prostate xenograft tumors: particularly effective in inhibiting prostate xenograft tumors in nude mice

## O=C1C=C(CCCCCCCCc2ccc(Nc3c4ccccc4nc4ccccc34)cc2)c2ccccc2C1=O [SL-11125, Quinone-acridine]
[1]
  pIC50: 5.23
[4]
  pIC50: 5.10
[5]
  pIC50: 6.89
[2]
  pIC50: 5.29
